{"source": "paper PMC4931907", "about": "(eLife, 2016)", "system": "acetyl NF-κBK310", "test": "Acetylation of overexpressed NF-κB p65 in HEK293T cells, Western blot", "assay_type": "cell-based", "conditions": "HEK293T transfected with p300 and NF-κB p65, 24 hr", "from_the_text": "Figure 2.", "data": [{"molecule": "O=C(O)c1ccccc1O", "note": "[salicylate, salicylic acid]", "values": [{"measurement": "Acetylation of NF-κB p65 K310", "result": "decreased acetylation"}]}]}
